Test results from US20160194359A1, “CELL-REACTIVE, LONG-ACTING, OR TARGETED COMPSTATIN ANALOGS AND RELATED COMPOSITIONS AND METHODS” (APELLIS PHARMACEUTICALS, INC., priority 2012, published 2016).
Values belong to the molecule of their own block, whether it stands above or below them. Non-standard residues stand in square brackets, D forms with d. Trp(6-F) = N[C@@H](Cc1c[nH]c2cc(F)ccc12)C(=O)O; Bpa = N[C@@H](Cc1ccc(C(=O)c2ccccc2)cc1)C(=O)O; 1Nal = N[C@@H](Cc1cccc2ccccc12)C(=O)O; 2Nal = N[C@@H](Cc1ccc2ccccc2c1)C(=O)O

Columns and labels:
complement activation = conditions: relative to compstatin amidated at the C-terminus; published data; cited from earlier work
[1] = previous study of CA28 administered intravenously (historical data); format: in vivo, Cynomolgus monkeys; conditions: for Serum concentration: CA28 (IV) 200 mg/kg, unit not in table
From the text: Average values and standard deviations are readily calculated. There was notable consistency between animals.
The data points represent all PEGylated CA28 compound detected.

[2] = target: T1, complement component C3 (human) (human, UniProt P01024 23-1663); test: cell-based or functional assay
[3] = target: T1, complement component C3 (human); test: cell-based or functional assay; remark: listed apart in the source
[4] = target: T1, complement component C3 (human); test: cell-based or functional assay; remark: listed apart in the source

Molecule: H-GICV(6fW)QD(6fW)GAHRCTN-COON (H-GICV[Trp(6-F)]QD[Trp(6-F)]GAHRCTN-OH; not fully specified (bridges); cysteine pairing not given here) [+G/V4(6fW)/W7(6fW)H9A+N-OH]
- Activity over compstatin (complement activation): 126 × more

Molecule: Ac-ICVWQDWGAHRCT-CONH2 [Ac-V4W/H9A]
- Activity over compstatin (complement activation): 45 × more

Molecule: Ac-ICVDhtQDWGAHRCT-COOH [Ac-V4Dht/H9A-OH]
- Activity over compstatin (complement activation): 5 × more

Molecule: Ac-ICVWQD(5fW)GAHRCT-CONH2 [Ac-V4W/W7(5fW)/H9A]
- Activity over compstatin (complement activation): 121 × more

Molecule: Ac-ICVVQDWGHHRCT-CONH2 [Ac-compstatin]
- Activity over compstatin (complement activation): 3 × more

Molecule: Ac-ICV(5fW)QDWGAHRCT-CONH2 [Ac-V4(5fW)/H9A]
- Activity over compstatin (complement activation): 31 × more

- Serum concentration ([1]; time 0.02 days, historical data): 34
- Serum concentration ([1]; time 0.042 days, historical data): 17
- Serum concentration ([1]; time 0.167 days, historical data): 9
- Serum concentration ([1]; time 0.333 days, historical data): 5
- Serum concentration ([1]; time 1 day, historical data): 1.5
- level at 4.008 h ([1]; cynomolgus monkey, serum, iv, 200 mg/kg, read-out: Serum Concentration): 9000 ng/mL
- level at 0.48 h ([1]; cynomolgus monkey, serum, IV 200 mg/kg, time 0.02 days, historical data, HPLC, read-out: Serum Concentration): 34000 ng/mL
- level at 1.008 h ([1]; cynomolgus monkey, serum, IV 200 mg/kg, time 0.042 days, historical data, HPLC, read-out: Serum Concentration): 17000 ng/mL
- level at 7.992 h ([1]; cynomolgus monkey, serum, IV 200 mg/kg, time 0.333 days, historical data, HPLC, read-out: Serum Concentration): 5000 ng/mL
- level at 24 h ([1]; cynomolgus monkey, serum, IV 200 mg/kg, time 1 day, historical data, HPLC, read-out: Serum Concentration): 1500 ng/mL
Molecule: CC[C@H](C)[C@H](NC(C)=O)C(=O)N[C@H]1CSSC[C@@H](C(=O)N[C@H](C(N)=O)[C@@H](C)O)NC(=O)[C@H](CCCNC(=N)N)NC(=O)[C@H](Cc2cnc[nH]2)NC(=O)[C@H](C)NC(=O)CNC(=O)[C@H](Cc2c[nH]c3ccccc23)NC(=O)[C@H](CC(=O)O)NC(=O)[C@H](CCC(N)=O)NC(=O)[C@H](Cc2cn(C)c3ccccc23)NC(=O)[C@H](C(C)C)NC1=O [CA28]

Molecule: Ac-ICV(2-Nal)QDWGAHRCT-CONH2 (Ac-ICV[2Nal]QDWGAHRCT-NH2; cysteine pairing not given here) [Ac-V4(2-Nal)/H9A]
- Activity over compstatin (complement activation): 99 × more

Molecule: Ac-ICV(Bpa)QDWGAHRCT-CONH2 (Ac-ICV[Bpa]QDWGAHRCT-NH2; not fully specified (bridges); printed as Ac-ICV(Bpa)QDWGAHRCT-CONH2; cysteine pairing not given here) [Ac-V4(Bpa)/H9A]
- Activity over compstatin (complement activation): 86 × more

Molecule: Ac-ICV(Bpa)QDWGAHRCT-COOH (Ac-ICV[Bpa]QDWGAHRCT-OH; not fully specified (bridges); printed as Ac-ICV(Bpa)QDWGAHRCT-COOH; cysteine pairing not given here) [Ac-V4(Bpa)/H9A-OH]
- Activity over compstatin (complement activation): 49 × more

Molecule: Ac-ICV(2-Nal)QDWGAHRCT-COOH (Ac-ICV[2Nal]QDWGAHRCT-OH; cysteine pairing not given here) [Ac V4(2-Nal)/H9A-OH]
- Activity over compstatin (complement activation): 38 × more

Molecule: Ac-ICV(2-IgI)QDWGAHRCT-COOH (Ac-ICV[2‑IgI]QDWGAHRCT-OH; cysteine pairing not given here) [Ac-V42IgI/H9A-OH]
- Activity over compstatin (complement activation): 37 × more

Molecule: Ac-ICV(5-methyl-W)QDWGAHRCT-CONH2 [Ac-V4(5-MeW)/H9A]
- Activity over compstatin (complement activation): 67 × more

Molecule: Ac-ICVWQDWGAHRCdT-COOH [Ac-V4W/H9A/T13dT-OH]
- Activity over compstatin (complement activation): 55 × more

Molecule: Ac-ICV(1-Nal)QDWGAHRCT-COOH (Ac-ICV[1Nal]QDWGAHRCT-OH; cysteine pairing not given here) [Ac V4(1-Nal)/H9A-OH]
- Activity over compstatin (complement activation): 30 × more

Molecule: Ac-ICVYQDWGAHRCT-CONH2 [Ac-V4Y/H9A]
- Activity over compstatin (complement activation): 14 × more

Molecule: Ac-ICV(2-IgI)QDWGAHRCT-CONH2 (Ac-ICV[2‑IgI]QDWGAHRCT-NH2; cysteine pairing not given here) [Ac-V42IgI/H9A]
- Activity over compstatin (complement activation): 39 × more

- IC50, classical complement inhibition assay (C3b deposition ELISA) [2]: 1.26 µM
B1: CA28-AEEAc-Lys-(PEG30k) (peptide)
peptide: ICVWQDWGAHRCTK
modifications: N-terminal acetyl; 1-methyl-tryptophan at position 4; disulfide Cys2-Cys12; AEEAc (8-amino-3,6-dioxaoctanoyl) linker after Thr13; linear 30 kD mPEG (NOF ME-300GS) on the Lys side chain; C-terminal amide

- IC50 (read off the curve); classical pathway complement activation (C3b deposition ELISA, human plasma) [3]: ~0.7 µM
B2: CA28-AEEAc-Lys(mPEG40K-hexanoyl) (peptide)
peptide: ICVWQDWGAHRCTK
modifications: N-terminal acetyl; 1-methyl-tryptophan at position 4; disulfide Cys2-Cys12; AEEAc linker after Thr13; linear 40 kD mPEG (NOF ME-400HS, hexanoyl) on the Lys side chain; C-terminal amide

- % Parent in Q1 (Type III cells with high C3d deposition); modified Ham's assay, 50 ug/ml [4]: 0.01%
- % Parent in Q2 (Type I and II cells with high C3d deposition); modified Ham's assay, 50 ug/ml [4]: 0.01%
- % Parent in Q3 (Type III cells without significant C3d deposition); modified Ham's assay, 50 ug/ml [4]: 61.5%
- % Parent in Q4 (Type I and II cells without significant C3d deposition); modified Ham's assay, 50 ug/ml [4]: 38.5%
B3: CA28-2GS-BF (bifunctionalized PEG-based compstatin analog, GS type) (peptide)
peptide: ICVWQDWGAHRCTK
modifications: N-terminal acetyl; 1-methyl-tryptophan at position 4; disulfide Cys2-Cys12; AEEAc linker after Thr13; Lys side chain coupled to one end of a bifunctional linear 40 kD PEG (glutaryl, GS type); C-terminal amide

- IC50 (read off the curve); classical pathway complement activation (C3b deposition ELISA, human plasma) [3]: ~0.7 µM
B4: CA28-AEEAc-Lys(mPEG40K-succinyl) (peptide)
peptide: ICVWQDWGAHRCTK
modifications: N-terminal acetyl; 1-methyl-tryptophan at position 4; disulfide Cys2-Cys12; AEEAc linker after Thr13; linear 40 kD mPEG (NOF ME-400CS, succinyl) on the Lys side chain; C-terminal amide

- IC50 (read off the curve); classical pathway complement activation (C3b deposition ELISA, human plasma) [3]: ~0.7 µM
B5: CA28-AEEAc-Lys(mPEG40K-carbonyl) (peptide)
peptide: ICVWQDWGAHRCTK
modifications: not fully specified; N-terminal acetyl; 1-methyl-tryptophan at position 4; disulfide Cys2-Cys12; AEEAc linker after Thr13; linear 40 kD mPEG (NOF ME-400TS, carbonyl) on the Lys side chain; C-terminal amide

- IC50 (read off the curve); classical pathway complement activation (C3b deposition ELISA, human plasma) [3]: ~0.7 µM
- IC50, classical complement inhibition assay (C3b deposition ELISA) [2]: 1.29 µM
B6: CA28-AEEAc-Lys-(PEG40k) (peptide)
peptide: ICVWQDWGAHRCTK
modifications: N-terminal acetyl; 1-methyl-tryptophan at position 4; disulfide Cys2-Cys12; AEEAc linker after Thr13; linear 40 kD mPEG (NOF ME-400GS, glutaryl) on the Lys side chain; C-terminal amide
